Measurements published in patent US8263584B2, “Imidazopyridines” (Hoffmann-La Roche Inc., priority 2009, dated 2012).
pIC50: −log10 of the molar value.

Target: T1, PDE10A2 (Homo sapiens, UniProt Q9Y233)
T1 construct: residues serine 449 to aspartate 789; His6 (H6) with Gateway linker and thrombin cleavage site (N, cleaved yes); made in house; host or cells: E. coli BL21(DE3) pLysS
Test: PDE10A2 inhibition, Scintillation Proximity Assay (SPA)
Assay type: biochemical
Conditions: catalytic domain of human PDE10A2 (S449-D789), 0.25 nM enzyme, 50 nM cGMP and 50 nM [3H]-cGMP, 30 minutes at room temperature
Description: The following tests were carried out in order to determine the activity of the compounds of the present invention. PDE10 activity of the compounds of the present invention is determined using a Scintillation Proximity Assay (SPA)-based method similar to the one previously described (Fawcett, L. et al., Proc Natl Acad Sci USA (2000) 97(7):3702-3707). PDE10A1 and PDE10A2 are two splice variants of PDE10A. There are these 2 splice variants known, which differ in the N-terminal part of the protein. The catalytic domains of PDE10A1 and PDE10A2 are identical. The assay for PDE10A2 described below is therefore also representative for PDE10A1 and also for PDE10A in general. The PDE10A2 assay was performed in a two step procedure in 96-well micro titer plates. […] A range of concentrations of the potential inhibitor was used to generate data for calculating the concentration of inhibitor resulting in 50% of the effect (e.g. IC50, the concentration of the competitor inhibiting PDE10A2 activity 50%). Non-specific activity was tested without the enzyme. The reaction was initiated by addition of the substrate solution (cGMP and [^3H]-cGMP) and allowed to progress for 30 minutes at room temperature. The reaction was terminated by transferring 50 μl of the reaction mixture into an OptiPlate (Perkin Elmer) containing 25 μl of YSi-SPA scintillation beads (GE Healthcare) in 18 mM zinc sulphate solution (stop reagent). After 1 h under shaking, the plate was centrifuged one minute at 1000 rpm to allow beads to settle. Afterwards, radioactive counts were measured on a Perkin Elmer TopCount Scintillation plate reader. The catalytic domain of human PDE10[…], was amplified by PCR using cDNA (Origene) and the oligonucleotides 5'-[…]00001:character} […] no. 1) (with AttB1 recombination site in bold and thrombin protease cleavage site in […] no. 2) (with AttB2 recombination site in bold) which conferred Gateway recombination sites. The PCR product was used in a BP recombination reaction with pDONR221 to generate […]([…]-[…]) which was DNA sequence verified and then used in an LR recombination reaction with a Gateway modified version of pET11a. […] About 30% of the protein was in the soluble fraction of the cell homogenate. The protein was purified using sequential chromatography on Ni-NTA and […]. After thrombin digest at room temperature a […]/HiTrap Benzamindin chromatography removed impurities, uncleaved protein and thrombin. Final purification of PDE10A2([…]-[…]) was performed on a Superdex 75 size exclusion chromatography equilibrated with 25 mM HEPES pH 8.4, 0.15 M NaCl. The yield of pure protein was 2 mg/liter of culture volume is relatively low. The purity of the protein was >95%, monomeric and monodisperse as shown by SDS-PAGE, HPLC and analytical ultracentrifugation.

T1 sequence (Q9Y233 715-1055): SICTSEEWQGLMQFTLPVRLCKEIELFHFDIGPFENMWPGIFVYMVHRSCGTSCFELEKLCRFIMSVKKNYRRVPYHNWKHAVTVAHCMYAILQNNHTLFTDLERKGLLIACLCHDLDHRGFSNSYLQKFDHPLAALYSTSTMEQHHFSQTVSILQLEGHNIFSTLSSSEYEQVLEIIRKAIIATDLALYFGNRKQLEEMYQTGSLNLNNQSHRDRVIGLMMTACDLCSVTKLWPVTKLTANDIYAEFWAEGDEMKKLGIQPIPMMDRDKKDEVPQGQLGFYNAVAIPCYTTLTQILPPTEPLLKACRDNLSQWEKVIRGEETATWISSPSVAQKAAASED

Cn1ncc(C(=O)N2CCOCC2CO)c1C(=O)Nc1ccn2cc(-c3ccccc3)nc2c1 (stereo not drawn) [Example 53, 4-(3-Hydroxymethyl-morpholine-4-carbonyl)-2-methyl-2H-pyrazole-3-carboxylic acid (2-phenyl-imidazo[1,2-a]pyridin-7-yl)-amide]
pIC50: 8.48

Cn1ncc(C(=O)Nc2ccncc2)c1C(=O)Nc1ccn2cc(-c3ccccc3)nc2c1 [Example 55, 2-Methyl-2H-pyrazole-3,4-dicarboxylic acid 3-[(2-phenyl-imidazo[1,2-a]pyridin-7-yl)-amide]-4-pyridin-4-ylamide]
pIC50: 8.37

CN(C)C1CCN(C(=O)c2cnn(C)c2C(=O)Nc2ccn3cc(-c4ccccc4)nc3c2)C1 (stereo not drawn) [Example 59, 4-(3-Dimethylamino-pyrrolidine-1-carbonyl)-2-methyl-2H-pyrazole-3-carboxylic acid (2-phenyl-imidazo[1,2-a]pyridin-7-yl)-amide]
pIC50: 9.22

CCn1ncc(C(=O)N2CCC2)c1C(=O)Nc1ccn2cc(-c3ccccc3)nc2c1 [Example 62, 4-(Azetidine-1-carbonyl)-2-ethyl-2H-pyrazole-3-carboxylic acid (2-phenyl-imidazo[1,2-a]pyridin-7-yl)-amide]
pIC50: 7.90

CNC(=O)c1cn[nH]c1C(=O)Nc1ccn2cc(-c3ccccc3)nc2c1 [Example 65, 2H-Pyrazole-3,4-dicarboxylic acid 4-methylamide 3-[(2-phenyl-imidazo[1,2-a]pyridin-7-yl)-amide]]
pIC50: 7.38

Cn1ncc(C(=O)NC(CO)CO)c1C(=O)Nc1ccn2cc(-c3ccccc3)nc2c1 [Example 66, 2-Methyl-2H-pyrazole-3,4-dicarboxylic acid 4-[(2-hydroxy-1-hydroxymethyl-ethyl)-amide]3-[(2-phenyl-imidazo[1,2-a]pyridin-7-yl)-amide]]
pIC50: 8.70

Cn1ncc(C(=O)N2CCC2)c1C(=O)Nc1cc2nc(-c3ccccc3)cn2cc1Br [Example 67, 4-(Azetidine-1-carbonyl)-2-methyl-2H-pyrazole-3-carboxylic acid (6-bromo-2-phenyl-imidazo[1,2-a]pyridin-7-yl)-amide]
pIC50: 10.00

Cn1ncc(C(=O)N2CCOCC2)c1C(=O)Nc1cc2nc(-c3ccccc3)cn2cc1C#N [Example 69, 2-Methyl-4-(morpholine-4-carbonyl)-2H-pyrazole-3-carboxylic acid (6-cyano-2-phenyl-imidazo[1,2-a]pyridin-7-yl)-amide]
pIC50: 9.00

Cn1ncc(C(=O)N2CCC2)c1C(=O)Nc1cc2nc(-c3ccccc3)cn2cc1Cl [Example 70, 4-(Azetidine-1-carbonyl)-2-methyl-2H-pyrazole-3-carboxylic acid (6-chloro-2-phenyl-imidazo[1,2-a]pyridin-7-yl)-amide]
pIC50: 9.52

Cn1ncc(C(=O)N2CCOCC2)c1C(=O)Nc1cc2nc(-c3ccccc3)cn2cc1Cl [Example 72, 2-Methyl-4-(morpholine-4-carbonyl)-2H-pyrazole-3-carboxylic acid (6-chloro-2-phenyl-imidazo[1,2-a]pyridin-7-yl)-amide]
pIC50: 9.10

Cn1ncc(C(=O)N2CCC2)c1C(=O)Nc1cc2nc(-c3ccccc3)cn2cc1C1CC1 [Example 74, 4-(Azetidine-1-carbonyl)-2-methyl-2H-pyrazole-3-carboxylic acid (6-cyclopropyl-2-phenyl-imidazo[1,2-a]pyridin-7-yl)-amide]
pIC50: 9.15

Cn1ncc(C(=O)N2CCOCC2)c1C(=O)Nc1cc2nc(-c3ccccc3)cn2cc1C1CC1 [Example 75, 2-Methyl-4-(morpholine-4-carbonyl)-2H-pyrazole-3-carboxylic acid (6-cyclopropyl-2-phenyl-imidazo[1,2-a]pyridin-7-yl)-amide]
pIC50: 9.00

Cn1ncc(Cl)c1C(=O)Nc1cc2nc(-c3ccccc3)cn2cn1 [Example 80, 4-Chloro-2-methyl-2H-pyrazole-3-carboxylic acid (2-phenyl-imidazo[1,2-c]pyrimidin-7-yl)-amide]
pIC50: 8.15

CN(C)C(=O)c1cnn(C)c1C(=O)Nc1cc2nc(-c3ccccc3)cn2cn1 [Example 82, 2-Methyl-2H-pyrazole-3,4-dicarboxylic acid 4-dimethylamide 3-[(2-phenyl-imidazo[1,2-c]pyrimidin-7-yl)-amide]]
pIC50: 10.00

CNC(=O)c1cnn(C)c1C(=O)Nc1cc2nc(-c3ccccc3)cn2cn1 [Example 84, 2-Methyl-2H-pyrazole-3,4-dicarboxylic acid 4-methylamide 3-[(2-phenyl-imidazo[1,2-c]pyrimidin-7-yl)-amide]]
pIC50: 8.57

COCCCNC(=O)c1cnn(C)c1C(=O)Nc1cc2nc(-c3ccccc3)cn2cn1 [Example 85, 2-Methyl-2H-pyrazole-3,4-dicarboxylic acid 4-[(3-methoxy-propyl)-amide]3-[(2-phenyl-imidazo[1,2-c]pyrimidin-7-yl)-amide]]
pIC50: 9.22

Cn1ncc(C(=O)N2CCC2)c1C(=O)Nc1cc2nc(-c3ccccc3)cn2cn1 [Example 86, 4-(Azetidine-1-carbonyl)-2-methyl-2H-pyrazole-3-carboxylic acid (2-phenyl-imidazo[1,2-c]pyrimidin-7-yl)-amide]
pIC50: 9.52

Cn1ncc(C(=O)N2CCOCC2)c1C(=O)Nc1cc2nc(-c3ccccc3)cn2cn1 [Example 89, 2-Methyl-4-(morpholine-4-carbonyl)-2H-pyrazole-3-carboxylic acid (2-phenyl-imidazo[1,2-c]pyrimidin-7-yl)-amide]
pIC50: 10.00
